Results taken from patent publication US9096559B2, “4-carboxybenzylamino derivatives as histone deacetylase inhibitors” (Merck Sharp & Dohme Corp., priority 2007, dated 2015).

Key:
CYP3A4 = CYP3A4 (Homo sapiens (Human), UniProt P08684); test: CYP inhibition potential, CYP3A4; assay type: in vitro ADME
Source text: (§1) The ancillary pharmacology profiles of the SHI-1:2 carbamate analogs were also gathered to investigate off-target activities (Table 12).

IKr ion channel = IKr ion channel (Homo sapiens (Human), UniProt Q12809); test: Displacement binding assay using radio-labeled MK-499
Sequence of IKr ion channel (Q12809 whole entry): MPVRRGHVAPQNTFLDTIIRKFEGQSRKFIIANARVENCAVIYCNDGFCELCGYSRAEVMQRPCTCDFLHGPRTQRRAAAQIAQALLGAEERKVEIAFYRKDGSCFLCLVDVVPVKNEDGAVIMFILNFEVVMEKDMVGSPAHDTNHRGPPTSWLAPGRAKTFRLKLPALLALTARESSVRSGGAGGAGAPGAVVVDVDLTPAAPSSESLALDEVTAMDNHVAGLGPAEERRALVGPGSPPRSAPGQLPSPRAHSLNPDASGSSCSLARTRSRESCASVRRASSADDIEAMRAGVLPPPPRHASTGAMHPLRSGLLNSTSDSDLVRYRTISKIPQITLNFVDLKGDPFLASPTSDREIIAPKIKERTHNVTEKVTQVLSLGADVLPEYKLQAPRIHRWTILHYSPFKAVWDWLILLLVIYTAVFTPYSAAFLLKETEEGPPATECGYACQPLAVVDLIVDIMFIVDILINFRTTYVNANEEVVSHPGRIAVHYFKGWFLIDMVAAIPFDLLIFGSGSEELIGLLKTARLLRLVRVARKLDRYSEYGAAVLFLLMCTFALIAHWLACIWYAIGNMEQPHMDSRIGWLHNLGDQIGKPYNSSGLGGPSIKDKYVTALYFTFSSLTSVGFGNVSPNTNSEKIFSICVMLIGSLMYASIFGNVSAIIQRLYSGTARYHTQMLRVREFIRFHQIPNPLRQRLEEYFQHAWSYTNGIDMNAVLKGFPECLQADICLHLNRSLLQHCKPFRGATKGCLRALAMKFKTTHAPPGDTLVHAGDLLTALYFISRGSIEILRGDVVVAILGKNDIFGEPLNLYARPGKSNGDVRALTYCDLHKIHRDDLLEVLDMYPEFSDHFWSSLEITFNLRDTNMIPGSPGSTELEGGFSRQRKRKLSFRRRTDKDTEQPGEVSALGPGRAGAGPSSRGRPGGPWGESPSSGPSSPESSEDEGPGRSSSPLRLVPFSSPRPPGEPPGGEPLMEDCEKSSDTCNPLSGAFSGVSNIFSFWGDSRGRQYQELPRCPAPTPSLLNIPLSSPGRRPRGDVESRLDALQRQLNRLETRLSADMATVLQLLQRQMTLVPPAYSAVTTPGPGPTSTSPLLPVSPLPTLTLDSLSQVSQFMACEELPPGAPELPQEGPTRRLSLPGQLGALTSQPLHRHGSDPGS
Source text: as §1

HCT-116 = HCT-116 anti-proliferation (GI50); assay type: cell-based, human; conditions: means of n ≧ 2 experiments
Experimental: The novel compounds of the present invention were tested for their ability to inhibit proliferation of the human cervical cancer (HeLa) and colon carcinoma (HCT116) cells.
In this assay, also referred to as the Vialight Assay, cellular ATP levels are measured as a means of quantifying cellular proliferation. This assay makes use of a bioluminescent method from Cambrex (ViaLight PLUS, cat. #LT07-121). In the presence of ATP, luciferase converts luciferin to oxyluciferin and light. The amount of light produced (emission at 565 nm) is measured and correlates with a relative amount of proliferation. Human cervical cancer (HeLa) or colon carcinoma (HCT116) cells were incubated with vehicle or increasing concentrations of compound for 48, 72 or 96 hours. Cell proliferation was quantified by adding the cell lysis reagent (provided in the Vialight assay kit) directly to culture wells, followed by addition of the ATP-monitoring reagent (containing luciferase/luciferin). The amount of light produced is then measured (emission at 565 nm). The quantity of light produced, as measured by […], is directly proportional to the number of living cells in culture. […]

[1] = target: histone deacetylase, subtype 1 (HDAC1) (Homo sapiens (Human), UniProt Q13547); test: HDAC1-Flag in vitro deacetylation assay; assay type: biochemical; conditions: means of n ≧ 2 experiments; read-out: HDAC1 IC50
Sequence of histone deacetylase, subtype 1 (HDAC1) (Q13547 whole entry): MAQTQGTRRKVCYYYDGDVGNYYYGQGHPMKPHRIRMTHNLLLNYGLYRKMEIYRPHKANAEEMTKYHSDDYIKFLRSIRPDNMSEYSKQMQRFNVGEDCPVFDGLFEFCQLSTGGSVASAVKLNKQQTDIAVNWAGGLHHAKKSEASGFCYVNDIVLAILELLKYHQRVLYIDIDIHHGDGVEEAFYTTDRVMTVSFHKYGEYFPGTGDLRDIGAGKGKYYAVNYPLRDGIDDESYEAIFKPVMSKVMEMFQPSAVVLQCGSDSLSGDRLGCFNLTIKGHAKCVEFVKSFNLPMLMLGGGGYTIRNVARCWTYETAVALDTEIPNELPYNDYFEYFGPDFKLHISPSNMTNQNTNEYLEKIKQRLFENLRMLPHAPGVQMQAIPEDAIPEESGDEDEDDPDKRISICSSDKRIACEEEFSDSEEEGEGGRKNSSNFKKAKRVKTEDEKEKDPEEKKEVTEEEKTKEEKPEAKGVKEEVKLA
Outline: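 Enzyme: Flag epitope-tagged human HDAC1 complex immunopurified from stably expressing mammalian cells. Substrate carries an acetylated lysine side chain; deacetylation yields a fluorophore proportional to activity, measured as fluorescence.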

CYP2C9 = CYP2C9 (Homo sapiens (Human), UniProt P11712); test: CYP inhibition potential, CYP2C9; assay type: in vitro ADME
Sequence of CYP2C9 (P11712 whole entry): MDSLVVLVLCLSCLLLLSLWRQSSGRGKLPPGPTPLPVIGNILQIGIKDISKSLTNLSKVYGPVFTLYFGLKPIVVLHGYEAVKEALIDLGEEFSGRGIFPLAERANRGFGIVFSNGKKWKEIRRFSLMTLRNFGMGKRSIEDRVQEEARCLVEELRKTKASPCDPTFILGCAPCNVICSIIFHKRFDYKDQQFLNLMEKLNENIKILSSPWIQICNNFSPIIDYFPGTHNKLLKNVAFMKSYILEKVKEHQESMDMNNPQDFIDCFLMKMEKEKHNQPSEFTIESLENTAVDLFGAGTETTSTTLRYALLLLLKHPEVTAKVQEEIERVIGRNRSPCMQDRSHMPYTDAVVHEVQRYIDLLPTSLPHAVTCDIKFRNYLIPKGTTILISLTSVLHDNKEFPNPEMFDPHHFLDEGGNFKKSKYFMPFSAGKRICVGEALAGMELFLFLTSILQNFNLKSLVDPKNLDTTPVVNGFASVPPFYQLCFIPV
Source text: as §1

CYP2D6 = CYP2D6 (Homo sapiens (Human), UniProt P10635); test: CYP inhibition potential, CYP2D6; assay type: in vitro ADME
Sequence of CYP2D6 (P10635 whole entry): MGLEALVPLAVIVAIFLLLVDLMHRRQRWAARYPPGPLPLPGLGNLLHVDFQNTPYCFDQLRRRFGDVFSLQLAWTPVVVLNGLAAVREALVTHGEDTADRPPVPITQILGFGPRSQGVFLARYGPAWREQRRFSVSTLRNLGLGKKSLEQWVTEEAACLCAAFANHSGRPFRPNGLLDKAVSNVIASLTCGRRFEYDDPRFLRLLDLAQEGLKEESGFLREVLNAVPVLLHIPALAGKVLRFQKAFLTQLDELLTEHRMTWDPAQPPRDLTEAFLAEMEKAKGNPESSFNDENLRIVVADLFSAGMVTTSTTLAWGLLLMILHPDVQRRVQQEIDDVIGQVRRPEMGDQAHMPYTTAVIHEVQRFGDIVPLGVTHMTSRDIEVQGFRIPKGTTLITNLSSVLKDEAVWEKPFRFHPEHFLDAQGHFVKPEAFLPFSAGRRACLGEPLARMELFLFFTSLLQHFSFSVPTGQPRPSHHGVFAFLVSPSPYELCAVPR
Source text: as §1

Sequence of CYP3A4 (P08684 whole entry): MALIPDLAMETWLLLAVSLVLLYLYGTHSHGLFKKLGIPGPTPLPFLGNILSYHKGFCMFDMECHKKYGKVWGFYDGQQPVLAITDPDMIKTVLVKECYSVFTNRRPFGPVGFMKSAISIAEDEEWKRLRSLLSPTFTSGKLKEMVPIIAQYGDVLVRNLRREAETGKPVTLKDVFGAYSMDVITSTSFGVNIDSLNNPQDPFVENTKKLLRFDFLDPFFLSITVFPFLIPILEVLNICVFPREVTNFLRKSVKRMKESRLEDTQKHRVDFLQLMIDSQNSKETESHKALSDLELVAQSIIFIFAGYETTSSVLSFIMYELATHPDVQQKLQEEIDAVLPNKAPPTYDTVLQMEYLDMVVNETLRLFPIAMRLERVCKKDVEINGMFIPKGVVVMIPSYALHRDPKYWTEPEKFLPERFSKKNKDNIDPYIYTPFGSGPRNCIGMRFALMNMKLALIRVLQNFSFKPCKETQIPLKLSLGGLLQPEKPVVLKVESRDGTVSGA

Nc1ccc(-c2ccccc2)cc1NC(=O)c1ccc(CNC(=O)OCc2ccccn2)cc1 [Example 14b]
% CYP Inhibition @ 10 μM 3A4 (CYP3A4): 38% | % MK-499 Binding Inhibition @ 10 μM (IKr ion channel; 10 μM): 51% | GI50 (HCT-116): 435 nM | IC50 [1]: 8 nM | % CYP Inhibition @ 10 μM 2C9 (CYP2C9): 67% | % CYP Inhibition @ 10 μM 2D6 (CYP2D6): 29%

Nc1ccc(-c2ccccc2)cc1NC(=O)c1ccc(CNC(=O)CCc2cccnc2)cc1 [Example 14a]
% CYP Inhibition @ 10 μM 3A4 (CYP3A4): 65% | IC50 (IKr ion channel): 3700 nM | GI50 (HCT-116): 337 nM | IC50 [1]: 11 nM | % CYP Inhibition @ 10 μM 2C9 (CYP2C9): 73% | % CYP Inhibition @ 10 μM 2D6 (CYP2D6): 25%
